What all share (type): cell-based
Assay [1] addresses T1, hGIPR (Homo sapiens, UniProt P48546).
T1 construct: expressed in transfected cells
T1 sequence (P48546 22-466): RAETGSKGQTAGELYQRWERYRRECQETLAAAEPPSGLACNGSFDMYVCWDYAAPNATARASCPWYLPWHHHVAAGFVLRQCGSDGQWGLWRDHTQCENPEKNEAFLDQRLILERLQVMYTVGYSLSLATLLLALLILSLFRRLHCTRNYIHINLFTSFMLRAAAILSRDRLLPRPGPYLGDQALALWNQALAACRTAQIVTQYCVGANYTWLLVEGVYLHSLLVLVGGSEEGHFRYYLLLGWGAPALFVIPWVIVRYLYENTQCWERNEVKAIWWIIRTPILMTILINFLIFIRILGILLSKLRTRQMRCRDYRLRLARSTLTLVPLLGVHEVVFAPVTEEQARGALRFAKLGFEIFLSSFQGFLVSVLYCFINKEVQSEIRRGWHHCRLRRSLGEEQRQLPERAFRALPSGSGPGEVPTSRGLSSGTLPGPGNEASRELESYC
The experiment in a line: Functional cAMP formation (HTRF) in HEK-293 clonal cells expressing hGIPR, 0.1% bovine casein, without or with 1.0% human serum albumin. The conditions noted are these: for Emax: percent of maximal response to GIP(1-42)NH2, read-out: hGIPR Emax, % ± SEM; for EC50: geometric mean, read-out: hGIPR EC50, nM (SEM, n). The procedure, abridged: (§1)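 Readings of the HTRF 665/620 nm ratio, which falls as cAMP rises, were converted to nM cAMP using a standard curve after 30 min peptide exposure at 37° C.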
In general terms: Changes in cAMP serve as a functional read-out for many G protein-coupled receptors.

In assay [2] the target is T2, hGCGR (Homo sapiens, UniProt P47871).
T2 construct: expressed in transfected cells
The experiment in a line: Functional cAMP formation (HTRF) in HEK-293 clonal cells expressing hGCGR, 0.1% bovine casein, without or with 1.0% human serum albumin. The conditions noted are these: read-out: hGCGR EC50, nM (SEM, n). The method, boiled down: as §1

Assay [3] deals with hGLP-1R (Homo sapiens, UniProt P43220). The assay can be described thus: Functional cAMP formation (HTRF) in HEK-293 clonal cells expressing hGLP-1R, 0.1% bovine casein, without or with 1.0% human serum albumin. Details: expressed in transfected cells. The conditions noted are these: 37° C.; for Emax: read-out: hGLP-1R Emax, % ± SEM; for EC50: cAMP, 0.1% bovine casein (no human serum albumin), geometric mean, read-out: hGLP-1R EC50, nM (SEM, n). The procedure, abridged:
as §1

Setting [4] is: HEK293, cAMP, 37° C., 0.1% bovine casein and 1.0% human serum albumin.
Setting [5] is: HEK293, cAMP, 37° C., 0.1% bovine casein, arithmetic mean.
[6] abbreviates: cAMP, 37° C., 0.1% bovine casein (no human serum albumin).
Setting [7] is: cAMP, 37° C., 0.1% bovine casein (no human serum albumin), geometric mean.
The mark [8] stands for this setting: cAMP, 37° C., 0.1% bovine casein and 1.0% human serum albumin, geometric mean (SEM, n).
Setting [9] is: 0.1% bovine casein and 1.0% human serum albumin, 37° C.
Where [10] appears, read: 0.1% bovine casein and 1.0% human serum albumin, 37° C., geometric mean.
Where [11] appears, read: HEK293, 0.1% bovine casein and 1.0% human serum albumin, percent of maximal response to GLP-1(7-36)NH2.

Like-named read-outs stand apart in the source and are kept apart here.

Drawing on patent publication US20230265151A1, “GIP/GLP1 CO-AGONIST COMPOUNDS” (priority 2020, published 2023), this text covers Emax and EC50 for four compounds.

hGLP-1R, sequence (P43220 24-463): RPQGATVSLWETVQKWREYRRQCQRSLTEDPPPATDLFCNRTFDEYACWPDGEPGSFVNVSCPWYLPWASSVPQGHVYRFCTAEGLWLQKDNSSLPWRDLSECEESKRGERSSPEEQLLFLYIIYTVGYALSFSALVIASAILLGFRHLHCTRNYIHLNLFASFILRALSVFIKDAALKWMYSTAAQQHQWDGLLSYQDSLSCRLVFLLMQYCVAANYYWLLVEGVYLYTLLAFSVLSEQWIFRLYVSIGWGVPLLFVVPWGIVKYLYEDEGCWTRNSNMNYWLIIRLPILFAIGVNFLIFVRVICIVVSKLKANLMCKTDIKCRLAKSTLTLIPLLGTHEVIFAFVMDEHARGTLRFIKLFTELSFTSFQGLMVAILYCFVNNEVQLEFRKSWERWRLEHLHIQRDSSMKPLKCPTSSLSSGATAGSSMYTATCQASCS
T2 sequence (P47871 26-477): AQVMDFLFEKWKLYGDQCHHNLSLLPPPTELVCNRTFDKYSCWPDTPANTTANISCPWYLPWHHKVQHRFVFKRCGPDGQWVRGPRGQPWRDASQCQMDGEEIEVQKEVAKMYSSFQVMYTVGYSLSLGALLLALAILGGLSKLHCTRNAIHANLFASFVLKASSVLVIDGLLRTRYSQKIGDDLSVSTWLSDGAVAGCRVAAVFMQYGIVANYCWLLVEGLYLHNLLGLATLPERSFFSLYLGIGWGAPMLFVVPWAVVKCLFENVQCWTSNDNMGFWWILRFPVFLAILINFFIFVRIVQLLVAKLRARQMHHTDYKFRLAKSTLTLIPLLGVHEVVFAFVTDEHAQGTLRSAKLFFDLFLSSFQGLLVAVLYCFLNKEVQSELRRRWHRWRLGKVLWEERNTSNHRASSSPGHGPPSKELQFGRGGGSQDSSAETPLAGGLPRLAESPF

Take `CC[C@H](C)[C@H](NC(=O)[C@H](CCCN)NC(=O)[C@H](CC(=O)O)NC(=O)[C@H](CC(C)C)NC(=O)[C@](C)(CC(C)C)NC(=O)[C@@H](NC(=O)C(C)(C)NC(=O)[C@H](Cc1ccc(O)cc1)NC(=O)[C@H](CC(=O)O)NC(=O)[C@H](CO)NC(=O)[C@@H](NC(=O)[C@](C)(Cc1ccccc1F)NC(=O)[C@@H](NC(=O)CNC(=O)[C@H](CCC(=O)O)NC(=O)C(C)(C)NC(=O)[C@@H](N)Cc1ccc(O)cc1)[C@@H](C)O)[C@@H](C)O)[C@@H](C)CC)C(=O)N[C@@H](C)C(=O)N[C@@H](CCC(N)=O)C(=O)NC(C)(C)C(=O)N[C@@H](CCC(=O)O)C(=O)N[C@@H](Cc1ccccc1)C(=O)N[C@H](C(=O)N[C@@H](CCCCNC(=O)COCCOCCNC(=O)COCCOCCNC(=O)COCCOCCNC(=O)CC[C@H](NC(=O)CCCCCCCCCCCCC(=O)O)C(=O)O)C(=O)N[C@@](C)(Cc1ccc(O)cc1)C(=O)N[C@@H](CC(C)C)C(=O)N[C@H](C(=O)N[C@@H](CCCCNC(=O)COCCOCCNC(=O)COCCOCCNC(=O)COCCOCCNC(=O)CC[C@H](NC(=O)CCCCCCCCCCCCC(=O)O)C(=O)O)C(=O)NCC(=O)NCC(=O)N1CCC[C@H]1C(=O)N[C@@H](CO)C(=O)N[C@@H](CO)C(=O)NCC(=O)N[C@@H](C)C(=O)N1CCC[C@H]1C(=O)N1CCC[C@H]1C(=O)N1CCC[C@H]1C(=O)N[C@@H](CO)C(N)=O)[C@@H](C)CC)[C@@H](C)CC` [Example 343]: the Emax – broadly, the size of the effect at its maximum, as opposed to the concentration needed – is 90.2% in assay [1] (setting [4]); 98.8% in assay [1] (setting [5]); 98.2% in assay [3] (HEK293, cAMP, 0.1% bovine casein and 1.0% human serum albumin, percent of maximal response to GLP-1(7-36)NH2). Also, the 50% effective concentration (EC50) (usually the concentration needed to bring the measured effect to its halfway point) in assay [1] (setting [6]) was 0.0111 nM; in assay [2] (setting [7]), more than 9950 nM; in assay [2] (setting [8]), more than 9950 nM; in assay [3], 0.275 nM.

For the compound `CCCCCCCCCCCC(=O)N[C@@H](CCC(=O)NCCOCCOCC(=O)NCCOCCOCC(=O)NCCCC[C@H](NC(=O)[C@H](CCCN)NC(=O)[C@H](CC(=O)O)NC(=O)[C@H](CC(C)C)NC(=O)[C@](C)(CC(C)C)NC(=O)[C@@H](NC(=O)[C@H](CO)NC(=O)[C@H](Cc1ccc(OC)cc1)NC(=O)[C@H](CC(=O)O)NC(=O)[C@H](CO)NC(=O)[C@@H](NC(=O)[C@](C)(Cc1ccccc1F)NC(=O)[C@@H](NC(=O)CNC(=O)[C@H](CCC(=O)O)NC(=O)C(C)(C)NC(=O)[C@@H](N)Cc1ccc(O)cc1)[C@@H](C)O)[C@@H](C)O)[C@@H](C)CC)C(=O)N[C@@H](C)C(=O)N[C@@H](CCC(N)=O)C(=O)NC(C)(C)C(=O)N[C@@H](CCC(=O)O)C(=O)N[C@@H](Cc1ccccc1)C(=O)N[C@H](C(=O)N[C@H](CCC(=O)O)C(=O)N[C@@](C)(Cc1ccc(O)cc1)C(=O)N[C@@H](CC(C)C)C(=O)N[C@H](C(=O)N[C@@H](CCCCNC(=O)COCCOCCNC(=O)COCCOCCNC(=O)CC[C@H](NC(=O)CCCCCCCCCCC)C(=O)O)C(=O)NCC(=O)NCC(=O)N1CCC[C@H]1C(=O)N[C@@H](CO)C(=O)N[C@@H](CO)C(=O)NCC(=O)N[C@@H](C)C(=O)N1CCC[C@H]1C(=O)N1CCC[C@H]1C(=O)N1CCC[C@H]1C(=O)N[C@@H](CO)C(N)=O)[C@@H](C)CC)[C@@H](C)CC)C(=O)O` [Example 290], the figures for the EC50 in assay [1] (setting [9]), in assay [2] (setting [10]) and in assay [2] (setting [7]) were 0.878 nM, more than 9950 nM and more than 9950 nM, respectively. Further, the Emax amounted to 93.4% in assay [1] (HEK293, 0.1% bovine casein and 1.0% human serum albumin, 37° C.); 109% in assay [3] (setting [11]).

With `CC[C@H](C)[C@H](NC(=O)[C@H](CC(C)C)NC(=O)[C@](C)(Cc1ccc(O)cc1)NC(=O)[C@@H](CCC(=O)O)NC(=O)[C@@H](NC(=O)[C@H](Cc1ccccc1)NC(=O)[C@H](CCCCNC(=O)COCCOCCNC(=O)COCCOCCNC(=O)CCCCCCCCCCCCC(=O)O)NC(=O)C(C)(C)NC(=O)[C@H](CCC(N)=O)NC(=O)[C@H](C)NC(=O)[C@H](CCCCNC(=O)COCCOCCNC(=O)COCCOCCNC(=O)CCCCCCCCCCCCC(=O)O)NC(=O)[C@H](CCCN)NC(=O)[C@H](CC(=O)O)NC(=O)[C@H](CC(C)C)NC(=O)[C@](C)(CC(C)C)NC(=O)[C@@H](NC(=O)C(C)(C)NC(=O)[C@H](Cc1ccncc1)NC(=O)[C@H](CC(=O)O)NC(=O)[C@H](CO)NC(=O)[C@@H](NC(=O)[C@](C)(Cc1ccccc1F)NC(=O)[C@@H](NC(=O)CNC(=O)[C@H](CCC(=O)O)NC(=O)C(C)(C)NC(=O)[C@@H](N)Cc1ccc(O)cc1)[C@@H](C)O)[C@@H](C)O)[C@@H](C)CC)[C@@H](C)CC)C(=O)N[C@@H](CCC(=O)O)C(=O)NCC(=O)NCC(=O)N1CCC[C@H]1C(=O)N[C@@H](CO)C(=O)N[C@@H](CO)C(=O)NCC(=O)N[C@@H](C)C(=O)N1CCC[C@H]1C(=O)N1CCC[C@H]1C(=O)N1CCC[C@H]1C(=O)N[C@@H](CO)C(N)=O` [Example 384], the Emax in assay [1] (setting [4]) amounted to 83.5%; in assay [1] (setting [5]) it was 94.5%; in assay [3] (HEK293, cAMP, 0.1% bovine casein, percent of maximal response to GLP-1(7-36)NH2, arithmetic mean), 98.2%. In addition, the EC50 was 0.0124 nM in assay [1] (setting [6]), more than 9950 nM in assay [2] (setting [7]), more than 9950 nM in assay [2] (setting [8]) and 0.308 nM in assay [3].

Regarding `CC[C@H](C)[C@H](NC(=O)[C@H](CC(C)C)NC(=O)[C@](C)(Cc1ccc(O)cc1)NC(=O)[C@@H](CCC(=O)O)NC(=O)[C@@H](NC(=O)[C@H](Cc1ccccc1F)NC(=O)[C@H](CCC(=O)O)NC(=O)C(C)(C)NC(=O)[C@H](CCC(N)=O)NC(=O)[C@H](C)NC(=O)[C@H](CCCCNC(=O)COCCOCCNC(=O)COCCOCCNC(=O)CC[C@H](NC(=O)CCCCCCCCCCCCC(=O)O)C(=O)O)NC(=O)[C@H](CCCN)NC(=O)[C@H](CC(=O)O)NC(=O)[C@H](CC(C)C)NC(=O)[C@](C)(CC(C)C)NC(=O)[C@@H](NC(=O)[C@H](CO)NC(=O)[C@H](Cc1ccncc1)NC(=O)[C@H](CC(=O)O)NC(=O)[C@H](CO)NC(=O)[C@@H](NC(=O)[C@](C)(Cc1ccccc1F)NC(=O)[C@@H](NC(=O)CNC(=O)[C@H](CCC(=O)O)NC(=O)C(C)(C)NC(=O)[C@@H](N)Cc1ccc(O)cc1)[C@@H](C)O)[C@@H](C)O)[C@@H](C)CC)[C@@H](C)CC)C(=O)N[C@@H](CCC(=O)O)C(=O)NCC(=O)NCC(=O)N[C@@H](CCCCNC(=O)COCCOCCNC(=O)COCCOCCNC(=O)CC[C@H](NC(=O)CCCCCCCCCCCCC(=O)O)C(=O)O)C(=O)N[C@@H](CO)C(=O)N[C@@H](CO)C(=O)NCC(=O)N[C@@H](C)C(=O)N1CCC[C@H]1C(=O)N1CCC[C@H]1C(=O)N1CCC[C@H]1C(=O)N[C@@H](CO)C(N)=O` [Example 63], the EC50 in assay [1] (setting [9]) was 0.771 nM; in assay [1] (cAMP, incubated at 37° C., 0.1% bovine casein (no human serum albumin)) it was 0.0176 nM; in assay [2] (setting [10]), more than 9950 nM; in assay [2] (cAMP, incubated at 37° C., 0.1% bovine casein (no human serum albumin), geometric mean), more than 9950 nM. In addition, the Emax in assay [3] (setting [11]) was 98%; in assay [3] (HEK293, percent of maximal response to GLP-1(7-36)NH2, 0.1% bovine casein, arithmetic mean), 90.6%.
